From US6969609B1 (priority 1998, dated 2005)

Tested on: BMDC
Assay type: cell-based, C57BL/6 mice

Substance: TNF-α
- B7-1 % positive cells: 85%
- B7-1 MFI: (320)
- B7-2 % positive cells: 71%
- B7-2 MFI: (412)
- CD11b % positive cells: 84%
- CD11b MFI: (729)
- CD11c % positive cells: 20%
- CD11c MFI: (149)
- CD40 % positive cells: 65%
- CD40 MFI: (159)
- H-2K^b/D^b % positive cells: 91%
- H-2K^b/D^b MFI: (195)
- I-A^b % positive cells: 95%
- I-A^b MFI: (1189)
- ICAM-1 % positive cells: 97%
- ICAM-1 MFI: (421)
- LFA-3 % positive cells: 87%
- LFA-3 MFI: (249)
